Laboratory results reported in patent US9464215B2, “Use of a ketal as a solvent in adhesives and ketal-containing adhesive composition” (OXITENO S.A. INDÚSTRIA E COMÉRCIO, priority 2012, dated 2016).
Converted amounts (≈) assume the structure as drawn.

Assays:
[1] = IARC, NTP, OSHA, ACGIH; cited from earlier work
rabbit [2] = details: 24 hours of exposure; cited from earlier work
rat [3] = details: 4 hours of exposure; cited from earlier work
rabbit [4] = details: 24 hours of exposure; cited from earlier work; remark: listed apart in the source
rabbit [5] = details: cited from earlier work
[6] = Solubilization and gel formation of 2 wt% polychloroprene solution; assay type: physicochemical; details: 2% by weight of polymer, rest for 24 hours
Procedure: A polychloroprene solution was prepared in 2-methyl-2-ethyl-1,3-dioxolane at a concentration of 2% by weight of the polymer, which was allowed to rest for 24 hours. […] Gel formation usually takes place by using toluene or an aromatic hydrocarbon solvent, and was not expected in the case of oxygenated solvents, such as 2-methyl-2-ethyl-1,3-dioxolane.

Water solubility = assay type: physicochemical; details: heading: Water solubility
rat [7] = details: cited from earlier work

CCC1(C)OCCO1 [2-methyl-2-ethyl-1,3-dioxolane]
Carcinogenicity listing [1]: not listed as carcinogenic | LCLo/24H (eye irritation - rabbit) (rabbit [2]): 500 mg/24 H | LCLo/4 H (inhalation rat) (rat [3]): 4,000 ppm/4 H | LCLo/24 H (skin rash - rabbit) (rabbit [4]): 500 mg/24 H | DL50 (dermal rabbit) (rabbit [5]): 10 mL/kg | Gel formation [6]: formation of a gel was seen | solubility (Water solubility): 3260 µg/mL (≈ 28.1 mM) | LD50 (oral rat) (rat [7]): 2,830 μL/kg
